# Measurements as given in publication PMC11881035, “^68Ga-Labeled Glycopeptides as Effective Tools for Liver Function Imaging” (Molecular Pharmaceutics, 2025).
# Where a SMILES comes first, the peptide text is derived from it. The star is where a group is joined. X1 = O=C(CCCCc1cn([C@@H]2O[C@H](CO)[C@H](O)[C@H](O)[C@H]2O)nn1)*; NODAGA = O=C(O)CN1CCN(CC(=O)O)CCN(C(CCC(=O)*)C(=O)O)CC1; GABA = NCCCC(=O)O
# Tested on: healthy male C57BL6 mouse
# Test: PET/MR imaging in C57BL6 mice, time activity curves
# Assay type: in vivo
# Procedure: The ^68Ge/^68Ga generator, devices for analytical HPLC, semipreparative HPLC, mass spectrometry, radio-thin layer chromatography, gamma counter and animal models for biodistribution and imaging studies including the image reconstruction procedures were the same as described before.[22] Stability assays in PBS and human blood serum, protein binding as well as determination of log D values followed established protocols.[25] Binding affinities (IC50) of selected ligands were determined in an isolated receptor-based assay according to a previously published procedure with minor modifications.[22] Dilutions of nonradioactive complexes were made with PBS + 0.1% BSA (10^–5–10^–12 M). Preparation of [^125I]I-Asialoorosomucoid which serves as the radioactive standard ligand has been published recently.[21]
# Animal experiments were performed in accordance with the Austrian animal experiments law (BGBl. I Nr. 114/2012) and the institution’s animal welfare standards as approved by the Austrian Federal Ministry of Education, Science and Research (BMBWF, 2022–0.311.708). Imaging experiments were conducted at Werner Siemens Imaging Center (Tübingen, Germany) according to the German animal welfare act as approved by the local authorities (R5/19 G, R09/21 G). […]
smiles,measurement,setting,value
"NC(=O)CNC(=O)CNC(=O)[C@H](CCCCNC(=O)CCCCc1cn([C@@H]2O[C@H](CO)[C@H](O)[C@H](O)[C@H]2O)nn1)NC(=O)CNC(=O)CNC(=O)[C@H](CCCCNC(=O)CCCCc1cn([C@@H]2O[C@H](CO)[C@H](O)[C@H](O)[C@H]2O)nn1)NC(=O)CNC(=O)CNC(=O)[C@H](CCCCNC(=O)CCCCc1cn([C@@H]2O[C@H](CO)[C@H](O)[C@H](O)[C@H]2O)nn1)NC(=O)CNC(=O)CNC(=O)[C@H](CCCCNC(=O)CCCCc1cn([C@@H]2O[C@H](CO)[C@H](O)[C@H](O)[C@H]2O)nn1)NC(=O)CNC(=O)CNC(=O)[C@H](CCCCNC(=O)CCCCc1cn([C@@H]2O[C@H](CO)[C@H](O)[C@H](O)[C@H]2O)nn1)NC(=O)CNC(=O)CNC(=O)[C@H](CCCCNC(=O)CCCCc1cn([C@@H]2O[C@H](CO)[C@H](O)[C@H](O)[C@H]2O)nn1)NC(=O)CNC(=O)CNC(=O)[C@H](CCCCNC(=O)CCCCc1cn([C@@H]2O[C@H](CO)[C@H](O)[C@H](O)[C@H]2O)nn1)NC(=O)CNC(=O)CNC(=O)[C@H](CCCCNC(=O)CCCCc1cn([C@@H]2O[C@H](CO)[C@H](O)[C@H](O)[C@H]2O)nn1)NC(=O)CNC(=O)CNC(=O)[C@H](CCCCNC(=O)CCCCc1cn([C@@H]2O[C@H](CO)[C@H](O)[C@H](O)[C@H]2O)nn1)NC(=O)CCCNC(=O)CCC(C(=O)O)N1CCN(CC(=O)O)CCN(CC(=O)O)CC1 (some centres unmarked) [[^68Ga]Ga-NODAGA-NonaLysan, metal not drawn] ({NODAGA-GABA}-K(X1)GGK(X1)GGK(X1)GGK(X1)GGK(X1)GGK(X1)GGK(X1)GGK(X1)GGK(X1)GG-NH2)",time of fast liver accumulation,"PET/MR, C57BL6 mouse, 1 MBq (100 pmol)",≤ 2 min
same,time of rapid tracer accumulation in liver (time-activity curves),followed by stable retention,≤ 5 min
